Laboratory results taken from patent publication US20100311668A1, “PERSONAL CARE AND COSMETIC COMPOSITION CONTAINING TETRAPEPTIDES WITH THE MOTIFS GX1X2G, PX1X2P, OR PX1X2K” (EVONIK GOLDSCHMIDT GMBH, priority 2007, published 2010).
Ends that are not written are not given here.

Experiments:
[1] = tested on: proinflammatory cytokines; experiment: Inhibition of UV-induced expression of proinflammatory cytokines
[2] = tested on: hyaluronic acid synthetase 1 (HAS1); experiment: Hyaluronic acid synthetase 1 (HAS1) mRNA expression in human dermal fibroblasts, quantitative PCR; format: cell-based; conditions: HDFs, 1 μg/ml peptide, 24 hours, vs PBS control, normalized to 18S rRNA
Method: (§1) FIG. 2: Hyaluronic acid synthetase 1 (HAS1) expression in human dermal fibroblasts (HDFs). […] Controls received PBS. Cells were harvested after 24 hours incubation and RNA was isolated. Expression of […] was determined by quantitative PCR. 18s rRNA served as house keeping gene for normalization. Given are means of three independent experiments.
(§2) Therefore, HDFs prepared from neonatal foreskin were cultured in EMEM (Life Technologies GmbH, Eggenstein, Germany) supplemented with 5% fetal calf serum (Greiner, Frickenhausen, Germany), 0.1% 1-glutamine, 2.5% NaHCO3, and 1% streptomycin/amphotericin B in a humidified atmosphere containing 5% CO2 for 4 days until they reached confluence as described by Schieke et al. J Invest Dermatol 2002, 119: 1323-9. […]
(§3) For isolation of total RNA RNeasy Total RNA Kits (Qiagen, Hilden; Germany) were used according to the manufacturer's guidelines. The RNA concentration was determined via photometric measurement at 260/280 (Biophotometer, Eppendorf, Hamburg, Germany).
(§4) Aliquots of total RNA (100 ng) were applied for cDNA-Synthesis using Superscript™ III First-Strand synthesis system for the reverse transcription step with random […] (Invitrogen, Karlsruhe, Germany). […] Three independent experiments were performed with 3 determinations each and the mean value of these was calculated. […] Each sample was analyzed in double employing the universal protocol over 46 cycles. […]

[3] = tested on: collagen 1 alpha-2 (COL1A2); experiment: Collagen 1 alpha-2 (COL1A2) mRNA expression in human dermal fibroblasts, quantitative PCR; format: cell-based; conditions: HDFs, 1 μg/ml peptide, 24 hours, vs PBS control, normalized to 18S rRNA
Method: FIG. 4: Collagen 1 alpha-2 (COL1A2) expression in human dermal fibroblasts (HDFs). […] Controls received PBS. Cells were harvested after 24 hours incubation and RNA was isolated. […] 18s rRNA served as house keeping gene for normalization. Given are means of three independent experiments.
Aliquots of total RNA (100 ng) were applied for cDNA-Synthesis using Superscript™ III First-Strand synthesis system for the reverse transcription step with random healers (Invitrogen, Karlsruhe, Germany). […] Three independent experiments were performed with 3 determinations each and the mean value of these was calculated. […] Each sample was analyzed in double employing the universal protocol over 46 cycles. […]

[4] = tested on: collagen; conditions: prior-art product background; cited from earlier work
[5] = tested on: human dermal fibroblasts (HDFs); experiment: Collagen production in human dermal fibroblasts, Sircol Soluble Collagen Assay of culture supernatants; format: cell-based; conditions: 1 μg/ml peptide, 24 hours, vs PBS control
Method: FIG. 5: Collagen production in human dermal fibroblasts (HDFs). […] Controls received PBS. Cell culture supernatands were collected after 24 hours incubation. Amounts of collagen were determined as described above. Given are means of three independent experiments.
Therefore, HDFs prepared from neonatal foreskin were cultured in EMEM (Life Technologies GmbH, Eggenstein, Germany) supplemented with 5% fetal calf serum (Greiner, Frickenhausen, Germany), 0.1% 1-glutamine, 2.5% NaHCO3, and 1% streptomycin/amphotericin B in a humidified atmosphere containing 5% CO2 for 4 days until they reached confluence as described by Schieke et al. J Invest Dermatol 2002, 119: 1323-9. For all studies, only early passage (<12) fibroblasts have been used to avoid changes in their original phenotype during subculture. Cells were kept in 6 well plates for culture. Peptides dissolved in PBS were added at concentrations of 1 μg/ml and incubated for 24 hours.
The amount of collagen in cell culture supernatants was determined utilizing a Sircol™ Soluble Collagen Assay (# S1000) from Biocolor Ltd. (Newtownabbay, Northern Ireland, UK) following the guidelines of the manufacturer.

[6] = tested on: fibronectin 1 (FN1); experiment: Fibronectin 1 (FN1) mRNA expression in human dermal fibroblasts, quantitative PCR; format: cell-based; conditions: HDFs, 1 μg/ml peptide, 24 hours, vs PBS control, normalized to 18S rRNA
Method: as §1, with “1: Fibronectin” for “2: Hyaluronic acid synthetase”, “(FN1)” for “(HAS1)”
as §2, §3, §4

[7] = tested on: collagen 1 alpha-1 (COL1A1); experiment: Collagen 1 alpha-1 (COL1A1) mRNA expression in human dermal fibroblasts, quantitative PCR; format: cell-based; conditions: HDFs, 1 μg/ml peptide, 24 hours, vs PBS control, normalized to 18S rRNA
Method: as §1, with “3: Collagen” for “2: Hyaluronic acid synthetase”, “alpha-1 (COL1A1)” for “(HAS1)”
as §2, §3, §4

In the case of “PKEK (also: N-acyl group, acyl not given here) [tetrapeptide PKEK]”, the “inhibition of UV-induced expression of proinflammatory cytokines” value [1] is reported as “inhibition of UV-induced expression of proinflammatory cytokines”.
In the case of “GEPG (also: N-acyl group, acyl not given here) [SEQ ID NO:1, tetrapeptide GEPG]”, the HAS1 expression [2] is reported as “strongest effects” and the COL1A2 expression [3] is reported as “triggering effects”.
For Val-Trp, the collagen stimulating activity [4] is given as “no significant collagen stimulating activity”.
In the case of “PGPP (also: N-acyl group, acyl not given here) [SEQ ID NO:4, tetrapeptide PGPP]”, the “collagen production (collagen protein in cell culture supernatants)” value [5] is reported as “markedly increased production of collagen”, the FN1 expression [6] is reported as “strongest effects” and the COL1A2 expression [3] is reported as “triggering effects”.
With “GEKG (also: N-acyl group, acyl not given here) [SEQ ID NO:3, tetrapeptide GEKG]” the “collagen production (collagen protein in cell culture supernatants)” value [5] was “markedly increased production of collagen” and the HAS1 expression [2] was “strongest effects”.
For “GPPG (also: N-acyl group, acyl not given here) [SEQ ID NO:2, tetrapeptide GPPG]”, the FN1 expression [6] was “strongest effects”.
With GAGP [SEQ ID NO:11, tetrapeptide GAGP] the COL1A1 expression [7] was “Strongest effects”.
